Laboratory results: patent US10676446B2, “Bicyclic quinazolinone derivatives” (Hoffmann-La Roche Inc., priority 2015, dated 2020)

These compounds were tested against human ATX (autotaxin, ENPP2), His-tagged (Homo sapiens (Human), UniProt Q13822) (assay: Human ATX enzyme inhibition assay (fluorescence quenching, MR121 substrate)). Details: 30 nM ATX, 1 μM MR121 substrate, 30° C., pH 8.0.
Type: biochemical
Procedure: Human ATX Enzyme Inhibition Assay
ATX inhibition was measured by a fluorescence quenching assay using a specifically labeled substrate analogue (MR121 substrate). To obtain this MR121 substrate, BOC and TBS protected 6-amino-hexanoic acid (R)-3-({2-[3-(2-{2-[2-(2-amino-ethoxy)-ethoxy]-ethoxy}-ethoxy)-propionylamino]-ethoxy}-hydroxy-phosphoryloxy)-2-hydroxy-propyl ester (Ferguson et al., Org. Lett. 2006, 8, 2023) was labeled with MR121 fluorophore [CAS RN 185308-24-1], 1-(3-carboxypropyl)-11-ethyl-1,2,3,4,8,9,10,11-octahydro-dipyrido[3,2-b:2′,3′-i]phenoxazin-13-ium) on the free amine of the ethanolamine side and then, after deprotection, subsequently with tryptophan on the side of the aminohexanoic acid.
Assay working solutions were made as follows:
Assay buffer (50 mM Tris-HCl, 140 mM NaCl, 5 mM KCl, 1 mM CaCl2, 1 mM MgCl2, 0.01% Triton-X-100, pH 8.0;
ATX solution: ATX (human His-tagged) stock solution (1.08 mg/mL in 20 mM bicine, pH 8.5, 0.15 M NaCl, 10% glycerol, 0.3% CHAPS, 0.02% NaN3), diluted to 1.4-2.5× final concentration in assay buffer;
MR121 substrate solution: MR121 substrate stock solution (800 μM MR121 substrate in DMSO), diluted to 2-5× final concentration in assay buffer.
Test compounds (10 mM stock in DMSO, 8 μL) were obtained in 384 well sample plates (Corning Costar #3655) and diluted with 8 μL DMSO. Row-wise serial dilutions were made by transferring 8 μL cpd solution to the next row up to row O. The compound and control solutions were mixed five times and 2 μL were transferred to 384 well assay plates (Corning Costar #3702). Then, 15 μL of 41.7 nM ATX solution was added (30 nM final concentration), mixed five times and then incubated for 15 minutes at 30° C. 10 μL of MR121 substrate solution was added (1 μM final concentration), mixed 30 times and then incubated for 15 minutes at 30° C.
For `CC(=O)N1CCN(c2ccc3ncn(CC(=O)NCc4cc(Cl)c(Cl)cn4)c(=O)c3c2)CC1` [Example 41], the IC50 was 21 nM. Work on `CC(=O)N1CCN(c2ccc3ncn(CC(=O)N4CCC[C@@H]4c4ccc(C)cc4)c(=O)c3c2)CC1` [Example 48] yielded an IC50 of 1580 nM. For `COCCN1CCN(c2ccc3ncn(CC(=O)N(C)Cc4ccc(Cl)c(Cl)c4)c(=O)c3c2)CC1` [Example 105], the IC50 was 59 nM. Compound `CC(=O)N1CCN(c2ccc3ncn(CC(=O)N(C)Cc4ccc(Cl)cc4)c(=O)c3c2)CC1` [Example 43] has an IC50 of 112 nM. Work on `N#Cc1ccc(CNC(=O)Cn2cnc3ccc(N4CCN(C(=O)C5COC5)CC4)cc3c2=O)c(Cl)c1` [Example 113, N-[(2-Chloro-4-cyanophenyl)methyl]-2-[6-[4-(oxetane-3-carbonyl)piperazin-1-yl]-4-oxoquinazolin-3-yl]acetamide] yielded an IC50 of 202 nM. `O=C(Cn1cnc2ccc(N3CCN(C(=O)C4CCCC4)CC3)cc2c1=O)NCc1ccc(Cl)c(Cl)c1` [Example 64] gave an IC50 of 4 nM. In the case of `CC(=O)N1CCN(c2ccc3ncn(CC(=O)NCc4ccc5c(c4)OCO5)c(=O)c3c2)CC1` [Example 15], the IC50 is reported as 415 nM. In the case of `CO[C@H](C)C(=O)N1CCC(c2ccc3ncn(CC(=O)N(C)Cc4ccc(C#N)c(Cl)c4)c(=O)c3c2)CC1` [Example 158], the IC50 is reported as 2 nM. `O=C(Cn1cnc2ccc(N3CCN(C(=O)Nc4cccnc4)CC3)cc2c1=O)NCc1ccc(Cl)c(Cl)c1` [Example 87] showed an IC50 of 76 nM. `CN(Cc1ccc(C#N)c(Cl)c1)C(=O)Cn1cnc2ccc(C3CCN(C(=O)C4CC(Cl)C4)CC3)cc2c1=O` (centres unmarked) [Example 139] was tested, and the IC50 was 18 nM. Work on `COC(=O)CN1CCN(c2ccc3ncn(CC(=O)NCc4ccc(Cl)c(Cl)c4)c(=O)c3c2)CC1` [Example 93, Methyl 2-[4-[3-[2-[(3,4-dichlorophenyl)methylamino]-2-oxoethyl]-4-oxoquinazolin-6-yl]piperazin-1-yl]acetate] yielded an IC50 of 29 nM. `CNC(=O)CN1CCN(c2ccc3ncn(CC(=O)N(C)Cc4ccc(Cl)c(Cl)c4)c(=O)c3c2)CC1` [Example 107, N-[(3,4-Dichlorophenyl)methyl]-N-methyl-2-[6-[4-[2-(methylamino)-2-oxoethyl]piperazin-1-yl]-4-oxoquinazolin-3-yl]acetamide] showed an IC50 of 67 nM. In the case of `COCCC(=O)N1CCC(c2cc(F)c3ncn(CC(=O)N(C)Cc4ccc(C#N)c(Cl)c4)c(=O)c3c2)CC1` [Example 188, N-[(3-Chloro-4-cyanophenyl)methyl]-2-[8-fluoro-6-[1-(3-methoxypropanoyl)piperidin-4-yl]-4-oxoquinazolin-3-yl]-N-methylacetamide], the IC50 is reported as 1 nM. `CN(Cc1ccc(Cl)c(Cl)c1)C(=O)Cn1cnc2ccc(C3CCN(C(=O)CS(N)(=O)=O)CC3)cc2c1=O` [Example 165, N-[(3,4-Dichlorophenyl)methyl]-N-methyl-2-[4-oxo-6-[1-(2-sulfamoylacetyl)piperidin-4-yl]quinazolin-3-yl]acetamide] was tested, and the IC50 was 20 nM. `COCCC(=O)N1CCC(c2cc3c(=O)n(CC(=O)N(C)Cc4ccc(C#N)c(Cl)c4)cnc3cn2)CC1` [Example 190, N-[(3-Chloro-4-cyanophenyl)methyl]-2-[6-[1-(3-methoxypropanoyl)piperidin-4-yl]-4-oxopyrido[3,4-d]pyrimidin-3-yl]-N-methylacetamide] gave an IC50 of 1 nM. Work on `O=C(Cn1cnc2ccc(N3CCN(S(=O)(=O)C4CCCC4)CC3)cc2c1=O)NCc1ccc(Cl)c(Cl)c1` [Example 89] yielded an IC50 of 20 nM. In the case of `CNC(=O)C[C@@H](NC(=O)Cn1cnc2ccc(N3CCN(C(C)=O)CC3)cc2c1=O)c1ccc(Cl)cc1` [Example 1, (3R)-3-[[2-[6-(4-Acetylpiperazin-1-yl)-4-oxoquinazolin-3-yl]acetyl]amino]-3-(4-chlorophenyl)-N-methylpropanamide], the IC50 is reported as 269 nM. Work on `CN(Cc1ccc(Cl)c(C#N)c1)C(=O)Cn1cnc2ccc(N3CCCN(CC4CCOC4)CC3)cc2c1=O` (centres unmarked) [Example 130, N-[(4-Chloro-3-cyanophenyl)methyl]-N-methyl-2-[4-oxo-6-[4-(oxolan-3-ylmethyl)-1,4-diazepan-1-yl]quinazolin-3-yl]acetamide] yielded an IC50 of 111 nM. Compound `CC(=O)N1CCC(c2ccc3ncn(CC(=O)NCc4cc(Cl)cc(C(F)(F)F)c4)c(=O)c3c2)CC1` [Example 161, 2-[6-(1-Acetylpiperidin-4-yl)-4-oxoquinazolin-3-yl]-N-[[3-chloro-5-(trifluoromethyl)phenyl]methyl]acetamide] has an IC50 of 28 nM. Compound `CC(=O)N1CCC(c2ccc3ncn(CC(=O)N(C)Cc4ccc(C#N)c(F)c4)c(=O)c3c2)CC1` [Example 127] has an IC50 of 9 nM. Compound `CC(=O)N1CCCN(c2ccc3ncn(CC(=O)N(C)Cc4ccc(Cl)c(C#N)c4)c(=O)c3c2)CC1` [Example 121] has an IC50 of 20 nM. With `CC(=O)N1CCN(c2ccc3ncn(CC(=O)NC(CC(=O)N(C)C)c4ccc(C(F)(F)F)cc4)c(=O)c3c2)CC1` (centres unmarked) [Example 5] the IC50 was 121 nM. For `CC(=O)N1CCN(c2ccc3ncn(CC(=O)NCc4ccc([N+](=O)[O-])cc4)c(=O)c3c2)CC1` [Example 21], the IC50 was 52 nM. Work on `CCN(CC)C(=O)CN1CCN(c2ccc3ncn(CC(=O)N(C)Cc4ccc(Cl)c(Cl)c4)c(=O)c3c2)CC1` [Example 110] yielded an IC50 of 34 nM. `COCCC(NC(=O)Cn1cnc2ccc(N3CCN(C(C)=O)CC3)cc2c1=O)c1ccc(Cl)c(Cl)c1` (centres unmarked) [Example 153, 2-[6-(4-Acetylpiperazin-1-yl)-4-oxoquinazolin-3-yl]-N-[1-(3,4-dichlorophenyl)-3-methoxypropyl]acetamide] gave an IC50 of 36 nM. `Cc1nc(C)c(CN2CCN(c3ccc4ncn(CC(=O)NCc5ccc(Cl)c(Cl)c5)c(=O)c4c3)CC2)o1` [Example 103] gave an IC50 of 288 nM. `CC(C)NC(=O)CN1CCN(c2ccc3ncn(CC(=O)N(C)Cc4ccc(Cl)c(Cl)c4)c(=O)c3c2)CC1` [Example 109] was tested, and the IC50 was 35 nM. With `CC(=O)N1CCN(c2ccc3ncn(CC(=O)NCc4ccc(C#N)cc4OCC(F)(F)F)c(=O)c3c2)CC1` [Example 33] the IC50 was 245 nM. Work on `CC(=O)N1CCN(c2ccc3nc(C)n(CC(=O)NCc4ccc(Cl)c(Cl)c4)c(=O)c3c2)CC1` [Example 151, 2-[6-(4-Acetylpiperazin-1-yl)-2-methyl-4-oxoquinazolin-3-yl]-N-[(3,4-dichlorophenyl)methyl]acetamide] yielded an IC50 of 21 nM. Work on `CC(=O)N1CCN(c2ccc3ncn(CC(=O)NCc4ccc(C(F)(F)F)nc4)c(=O)c3c2)CC1` [Example 16] yielded an IC50 of 207 nM. Compound `CN(Cc1ccc(C#N)c(Cl)c1)C(=O)Cn1cnc2ccc(N3CCCN(CC4CCOC4)CC3)cc2c1=O` (centres unmarked) [Example 129, N-[(3-Chloro-4-cyanophenyl)methyl]-N-methyl-2-[4-oxo-6-[4-(oxolan-3-ylmethyl)-1,4-diazepan-1-yl]quinazolin-3-yl]acetamide] has an IC50 of 26 nM. Work on `O=C(Cn1cnc2ccc(N3CCN(C(=O)C4CCC4)CC3)cc2c1=O)NCc1ccc(Cl)c(Cl)c1` [Example 63] yielded an IC50 of 11 nM. `CC(=O)N1CCN(c2ccc3ncn(C4(C(=O)NCc5ccc(Cl)c(Cl)c5)CC4)c(=O)c3c2)CC1` [Example 150, 1-[6-(4-Acetylpiperazin-1-yl)-4-oxoquinazolin-3-yl]-N-[(3,4-dichlorophenyl)methyl]cyclopropane-1-carboxamide] gave an IC50 of 91 nM. `COC(=O)N1CCC(c2ccc3ncn(CC(=O)N(C)Cc4ccc(C#N)c(Cl)c4)c(=O)c3c2)CC1` [Example 160, Methyl 4-[3-[2-[(3-chloro-4-cyanophenyl)methyl-methylamino]-2-oxoethyl]-4-oxoquinazolin-6-yl]piperidine-1-carboxylate] showed an IC50 of 158 nM. `CC(=O)N1CCN(c2ccc3ncn(CC(=O)NCc4ccc(S(C)(=O)=O)c(C)c4)c(=O)c3c2)CC1` [Example 40] gave an IC50 of 1560 nM. `CC(=O)N1CCN(c2ccc3ncn(CC(=O)N(C)Cc4ccc(C#N)c(F)c4)c(=O)c3c2)CC1` [Example 45] showed an IC50 of 38 nM. Work on `CC(=O)N1CCN(c2ccc3ncn(CC(=O)NCc4noc(-c5ccc(Cl)cc5)n4)c(=O)c3c2)CC1` [Example 51] yielded an IC50 of 51 nM. `C[C@H](O)C(=O)N1CCC(c2ccc3ncn(CC(=O)N(C)Cc4ccc(Cl)c(Cl)c4)c(=O)c3c2)CC1` [Example 175] gave an IC50 of 15 nM. For `CN(Cc1ccc(C#N)c(Cl)c1)C(=O)Cn1cnc2ccc(C3CCN(C(=O)C4CCO4)CC3)cc2c1=O` (centres unmarked) [Example 141], the IC50 was 2 nM. `CC(=O)N1CCN(c2ccc3ncn(CC(=O)NCc4ccc(C#N)cc4)c(=O)c3c2)CC1` [Example 19] was tested, and the IC50 was 130 nM. For `O=C(Cn1cnc2ccc(N3CCN(C(=O)C(F)(F)F)CC3)cc2c1=O)NCc1ccc(Cl)c(Cl)c1` [Example 62], the IC50 was 11 nM. Compound `CC(=O)N1CCN(c2ccc3ncn(CC(=O)NCc4cccc(C#N)c4C)c(=O)c3c2)CC1` [Example 35] has an IC50 of 71 nM. `CN(Cc1ccc(Cl)c(Cl)c1)C(=O)Cn1cnc2ccc(N3CCN(CC(=O)Nc4ccccc4)CC3)cc2c1=O` [Example 112] gave an IC50 of 71 nM. For `CC(=O)N1CCC(c2ccc3ncn(CC(=O)NCc4ccc(Cl)c(Cl)c4)c(=O)c3c2)CC1` [Example 122], the IC50 was 12 nM.
